{
  "source": "patent US20020049157A1",
  "about": "“Use of proteasome inhibitors for treating cancer, inflammation, autoimmune disease, graft rejection and septic shock” (priority 1998, published 2002)",
  "type_in_all_cases": "cell-based, human",
  "key": {"p27^Kip1": {"system": "p27^Kip1", "test": "Immunoblotting of p27Kip1 level in T cells", "settings": "PHA, LAC 10 μM added once at 0 h", "procedure": "Tonsillar T cells were stimulated with PHA (2 μg/ml) for 16 h, 40 or 64 h in the absence or presence of LAC (10 μM). For the 16 h and 40 h culture, LAC was added once at 0 h. For the 64 h culture, LAC was added once at 40 h. The cell lysates were resolved in 10% SDS-PAGE, and blotted onto PVDF membranes. The membranes were hybridized with rabbit anti-p27^Kip1 antisera (FIG. 9A) or with anti-p21^Cip1 antisera (FIG. 9B) followed by ^125-protein A. The experiments were performed three times, and similar results were obtained. Representative data is shown.\nIn addition to the cyclin levels, the CDK activities are also controlled by several low molecular weight inhibitors. We have examined in this study the effect of the proteasome on the CDK inhibitors p27^Kip1 (Hall et al., 1995, supra) and p21^Cip1 (el-Deiry et al., 1993, Cell 75:817). […] This is in agreement with previous reports (Hengst et al., 1996, Science 271:1861; Nourse et al., 1994, Nature 372:570). […] The blockage was less obvious when assayed at 40 h, probably because the gradual loss of LAC activity during the 40 h culture. […]\nImmunoblotting was employed to evaluate the levels of Cyclin E, cyclin A, p21^Cip1 and p27^Kip1. […] The cleared lysates were quantitated for protein concentrations. […] The signals on the membrane were detected by [^125I]-protein A followed by autoradiography."}, "Peripheral blood T cells": {"system": "Peripheral blood T cells", "test": "Mitogen-stimulated T cell proliferation (3H-thymidine uptake)", "settings": "for inhibition of subsequent PHA-stimulated proliferation after preincubation and wash: 10 μM LAC; for inhibition of T cell proliferation (3H-thymidine uptake): LAC added at 0 h", "procedure": "Lymphocytes were stimulated with various mitogens as indicated, and LAC at different concentrations was added at the beginning of the cultures. The cells were pulsed with 3H-thymidine between 48 h and 64 h. Samples were in triplicates. All the experiments were performed at least three times and similar results were obtained. Representative results are shown.\nA: Peripheral blood T cells stimulated with PHA (2 μg/ml).\nB: Peripheral blood T cells stimulated with OKT3 (50 ng/ml).\nC: Peripheral blood T cells stimulated with anti-CD28 (50 ng/ml) plus ionomycin (1 μg/ml).\nA. The rapid effect of LAC Peripheral blood T cells were pretreated with 10 μM LAC in culture medium or in culture medium alone for 3 h or 16 h. The cells were then washed and recultured in the presence of 2 μg/ml PHA for 64 h. The cells were pulsed with ^3H-thymidine for 16 h before they were harvested at 64 h. Samples were in triplicates.\nC and D. LAC blocks the S phase entry of the mitogen-stimulated peripheral blood T cells Peripheral blood T cells were stimulated with PHA (2 μ/ml) in the absence or presence of LAC (10 μM, added at 0 h, 16 h, 24 h, or 40 h, as indicated in the bottom of the panels). For the flow cytometry analysis of the cell cycle progress, the cells were harvested at 0 h, 1 6 h, 40 h and 64 h as indicated on the top of the panels (FIG. 6C). For ^3H-thymidine uptake, the triplicated cell samples were pulsed at 48 h and harvested at 64 h (FIG. 6D).\nThe role of proteasome in T cell activation and proliferation was first examined in PBMC, using the proteasome-specific inhibitor LAC. The PBMC were activated with various stimulants. LAC was added to the cells in the beginning of the culture (0 h) along with the stimulants. ^3H-thymidine uptake between 48 h and 64 h of 64 h cultures was used as a parameter for cell proliferation. […] Rather, it likely affects certain downstream events governing a more general process(es) in lymphocyte activation and proliferation.\nWe next investigated how fast and how long LAC could exert its effects on the lymphocytes, since this information is necessary to assess the requirement of the proteasome activity for events related to cell activation and proliferation. The cells were then washed and recultured in the presence of PHA. The thymidine uptake was measured 3 days later.\nPeripheral blood mononuclear cells (PBMC) and tonsillar T cells were prepared as described before (Luo et al., 1992, Transplantation 53:1071; Luo et al., 1993, Clin. & Exp. Immunol. 94:371). The cells were cultured in RPMI 1640 supplemented with 10% FCS, L-glutamine and antibiotics. ^3H-thymidine uptake was carried out as described previously (Luo et al., 1992, supra; Luo et al., 1993, supra)."}, "IL-2": {"system": "IL-2", "test": "IL-2 production by PBMC after PHA stimulation", "settings": "2 to 4 days after PHA; LAC 10 μM added at the beginning; data not shown", "procedure": "In the four systems of T and B cell activation and proliferation studied in the first section, the growth promoting activity of IL-2 is indirectly (for stimulation by PHA, anti-CD3, and anti-CD28 plus ionomycin), or directly (for SAC plus IL-2) involved. We then investigated the role of proteasome in IL-2Rα expression and IL-2 production. […] Under the experimental condition used, the viability of the LAC-treated cell was reasonable (>80% at 40 h) as described in the previous section as LAC was added only once initially. Moreover, no consistent change of IL-2 production in LAC-treated cells was a functional indication that the cell viability was reasonable and is not of a concern in interpreting the data. The results from this section indicate that IL-2Rα upregulation but not IL-2 production is proteasome-dependent, and the suppressed IL-2Rα expression likely contributes to LAC's inhibitory effect on T cells activation and proliferation. The Proteasome Activity is Critically Required Between G0 and G1/S Boundary in T Cells"}, "Namalwa": {"system": "Namalwa", "test": "Quantitative filter elution assay of DNA fragmentation in Namalwa cells", "settings": "lactacystin 0.75-10 μM; 24-96 h", "procedure": "A human B cell line Namalwa was stably transfected with an anti-apoptotic Bcl-2 family member Bcl-xL, and its sensitivity to the proteasome inhibitor-induced apoptosis tested by the quantitative filter elution assay (Schmitt et al., 1998, Exp. Cell Res. 240:107), which detects DNA fragmentation during apoptosis. The wild type Namalwa and transfected Namalwa cells overexpressing Bcl-xL were pulsed with ^14C-thymidine for 24 h, and then treated with different concentrations of lactacystin (0.75 μM, 1.5 μM, 3 μM, 6 μM and 10 μM). The cells were harvested at different time intervals (24-96 h), and DNA fragmentation measured."}},
  "data": [
    {"smiles": "CC(=O)N[C@@H](CSC(=O)[C@]1([C@@H](O)C(C)C)NC(=O)[C@H](C)[C@@H]1O)C(=O)O", "note": "[LAC, lactacystin]", "values": [
      {"measurement": "decrease (degradation) of p27Kip1", "setting": "p27^Kip1; assayed at 16 h", "result": "significantly blocked the decrease"},
      {"measurement": "blockage of p27Kip1 decrease", "setting": "p27^Kip1; assayed at 40 h", "result": "less obvious"},
      {"measurement": "inhibition of subsequent PHA-stimulated proliferation after preincubation and wash", "setting": "Peripheral blood T cells; 3 h preincubation", "result": "significant inhibition"},
      {"measurement": "inhibition of subsequent PHA-stimulated proliferation after preincubation and wash", "setting": "Peripheral blood T cells; 16 h preincubation, compared with 3 h", "result": "more effective"},
      {"measurement": "inhibition of T cell proliferation (3H-thymidine uptake)", "setting": "Peripheral blood T cells; Ca++ ionophore plus cross-linking of CD28", "result": "strongly and dose-dependently inhibited"},
      {"measurement": "extent of inhibition of T cell proliferation", "setting": "Peripheral blood T cells; LAC at 5 μM, PHA, anti-CD3, anti-CD28 plus ionomycin systems", "result": "near-to-maximal inhibition"},
      {"measurement": "inhibition of 3H-thymidine uptake", "setting": "Peripheral blood T cells; PHA, LAC 10 μM added as late as 40 h, pulsed 48 h, harvested 64 h", "result": "strongly inhibitory"},
      {"measurement": "inhibition of T cell proliferation (3H-thymidine uptake)", "setting": "Peripheral blood T cells; crosslinking TCR with anti-CD3", "result": "strongly and dose-dependently inhibited"},
      {"measurement": "inhibition of T cell proliferation (3H-thymidine uptake)", "setting": "Peripheral blood T cells; induced by PHA, uptake 48-64 h", "result": "strongly and dose-dependently inhibited"},
      {"measurement": "IL-2 production", "setting": "IL-2", "result": "no consistent difference was found"},
      {"measurement": "DNA fragmentation in Bcl-xL transfected vs wild type Namalwa cells", "setting": "Namalwa", "result": "demonstrably less DNA fragmentation"}
    ]}
  ]
}
